“Also recorded” adds a separate entry of the source.

One series concerns splenic T cells. As to the kind of experiment: in vivo transfection with mCherry mRNA by CD5-targeted tLNP, splenic T cells. The following applies: C57BL/6 mice, in words. Here is the method: (§1) To assess the ability of a constrained ionizable cationic lipids to facilitate in vivo transfection of T cells with mCherry mRNA (SEQ ID NO. 5), tLNP incorporating CICL-207, or for comparison, CICL-1, and conjugated to an anti-mouse CD5 antibody were prepared and administered to C57BL/6 mice. The tLNP comprised either CICL-207 or CICL-1, DSPC, cholesterol, either DMG-PEG(2000) or DSG-PEG(2000), and DSPE-PEG(2000)-maleimide in the proportions indicated in Table 7 (below) and an N/P ratio of 6. CICL-1 has the structure:
Briefly, to prepare the tLNP, N1-methylpseudouridine (m1ψ)-substituted mCherry mRNA was encapsulated in LNP using a self-assembly process in which an aqueous solution of mRNA at pH 3.5 was rapidly mixed with a solution of lipids dissolved in ethanol, then followed by stepwise phosphate and Tris buffer dilution and tangential flow filtration (TFF) purification. Then an anti-CD5 mAb was conjugated to the above LNP to generate tLNP. Purified rat anti-mouse CD5 antibody, clone 53-7.3 (BioLegend), was coupled to LNP via N-succinimidyl S-acetylthioacetate (SATA)-maleimide conjugation chemistry. Briefly, LNPs with DSPE-PEG(2000)-maleimide incorporated were formulated and stored at 4° C. on the day of conjugation. The antibody was modified with SATA (Sigma-Aldrich) to introduce sulfhydryl groups at accessible lysine residues allowing conjugation to maleimide. SATA was deprotected using 0.5 M hydroxylamine followed by removal of the unreacted components by G-25 Sephadex Quick Spin Protein columns (Roche Applied Science, Indianapolis, IN). The reactive sulfhydryl group on the antibody was then conjugated to maleimide moieties on the LNPs using thioether conjugation chemistry. Purification was performed using Sepharose CL-4B gel filtration columns (Sigma-Aldrich). tLNPs (LNPs conjugated with a targeting antibody) were frozen at −80° C.
The mice were administered tLNPs containing 10 μg of mRNA by tail vein injection and tissue was harvested 24 hours later. […] These same trends have been observed with tLNP comprising CICL-1 as the ionizable lipid (data not shown). The tLNP comprising 58% ionizable cationic lipid had similarly low transfection rates (<4%) for CD45^− liver cells (hepatocytes)(FIG. 1B). […]

Series [1] deals with liver Kupffer cells (CD45+/CD11+ liver cells). As to the kind of experiment: in vivo transfection with mCherry mRNA by CD5-targeted tLNP, liver Kupffer cells. The following applies: C57BL/6 mice, 10 μg mRNA tail vein, 24 hours. Here is the method:
as §1
Briefly, to prepare the tLNP, N1-methylpseudouridine (m1ψ)-substituted mCherry mRNA was encapsulated in LNP using a self-assembly process in which an aqueous solution of mRNA at pH 3.5 was rapidly mixed with a solution of lipids dissolved in ethanol, then followed by stepwise phosphate and Tris buffer dilution and tangential flow filtration (TFF) purification. Then an anti-CD5 mAb was conjugated to the above LNP to generate tLNP. […]
Further ionizable cationic lipids according to Formula M2 were incorporated into tLNP and the ability of the tLNP to transfect cells in vivo assessed essentially as described in the preceding Example. Their physicochemical properties as determined in various experiments are compiled in Table 10.

Series [2] relates to luciferase mRNA expression in liver, spleen and other organs. As to the kind of experiment: luciferase biodistribution (organ bioluminescence) of LNP and CD5-targeted tLNP. The class given is in vivo, C57Bl/6 mice. Conditions: 2 μg mRNA/animal. Here is the method:
LNP and tLNP with the F9 and F50 composition were prepared as example 66 described, except the payload consisted of mRNA encoding luciferase (SEQ ID NO. 4).
Eight-week-old female C57BI)6 mice (Charles River Laboratories) were intravenously injected with […] or F50 LNPs or CD5-targeted tLNPs encapsulating mRNA encoding luciferase at a dose of 2 μg mRNA/animal via the tail vein. At 6 hours post-injection, prone and supine bioluminescence images were collected from all mice (FIGS. 8A-8B). Following whole-animal imaging, the mice were sacrificed, and the following tissues were collected: liver, spleen, lung, kidneys (both), heart, bone marrow (femur), lymph nodes (left and right inguinal), and brain. Tissues were placed into luciferin pre-filled black polystyrene plates with spacing between tissues, and bioluminescent images were collected at 6 hours and 24 hours post-injection (FIGS. 8C-8D, respectively).

The nature of series [3]: tolerability of F50 LNP: liver enzymes, acute phase proteins, cytokines. It counts as in vivo, Sprague Dawley rats. The following applies: rats, intravenous, up to 8 mg/kg.
Experimental: A study in which various dosages of undecorated F50 LNP encapsulating mCherry mRNA (up to 8 mg/kg) were administered intravenously to 8-week-old male Sprague Dawley rats (Charles River Laboratories). Liver enzymes in serum were determined (FIGS. 12A-B). Acute phase protein (FIGS. 12C-E) and cytokine levels (FIGS. 12F-H) were assessed in plasma by Luminex assay.
Series [4] in a line: tolerability of LNP-containing compositions in rat (general statements). The following applies: tLNP, single doses.

With `CCCCCCCCC(=O)OCC(COC(=O)CCCCCCCC)CC(=O)OC[C@@H]1C[C@@H](OC(=O)CC(COC(=O)CCCCCCCC)COC(=O)CCCCCCCC)CN1C(=O)OCCN(C)C` [CICL-207, 2-(2-(((2S,4R)-1-((2-(dimethylamino)ethoxy)carbonyl)-4-((4-(nonanoyloxy)-3((nonanoyloxy)methyl)butanoyl)oxy)pyrrolidin-2-yl)methoxy)-2-oxoethyl)propane-1,3-diyl dinonanoate], in the series with splenic T cells, the “effect of ionizable cationic lipid content (50%, 58%, 62%, 65%) on transfection rate” value is given as “greater for CICL-207 than for CICL-225 in splenic T cells; also recorded: decreased performance”; the “performance of tLNP: transfection rate and expression level (MESF)” value was “best performing composition; also recorded: somewhat more desirable transfection rates”. Besides, the “transfection rate for liver Kupffer cells (CD45+/CD11+)” value in series [1] is “similarly low levels”. Besides, the “bioluminescence in non-target organs” value in series [2] is on record as “generally producing the least bioluminescence”. In series [3], the tolerability entry was “well tolerated”. Also, the “single dose generally well tolerated” value in series [4] was “at least 8 mg/kg”.

The record behind these values is patent publication US20250127728A1, “Constrained Ionizable Cationic Lipids and Lipid Nanoparticles” (CAPSTAN THERAPEUTICS, INC., priority 2023, published 2025).
